Experimental data taken from PMC8368196, “Phase 1 study of the ATR inhibitor berzosertib (formerly M6620, VX-970) combined with gemcitabine ± cisplatin in patients with advanced solid tumours” (British Journal of Cancer, 2021).
pIC50: −log10 of the molar value. Where two headings read alike, the source gives them in different places.

Experiments:
[1] = Berzosertib plasma and urine pharmacokinetics (LC-MS/MS, non-compartmental analysis); type: in vivo, human; conditions: for AUC(0-inf) / Cmax / clearance / Vd / half-life: iv, plasma; for Vd: read-out: Vss
Protocol: PK assessments for berzosertib were conducted during the monotherapy lead-in and during cycles 1 and 2. Blood samples for berzosertib plasma PK assessments were collected following the single-agent dose, from day 1 of combination dosing (pre-dose, 0.5 h before the end of infusion, at end of infusion and 0.5, 1, 2, 3, 7, 23, 47 and 71 h after the end of infusion), on day 9 (pre-dose) and cycle 2 day 2 (pre-dose and 2 h after the end of infusion). Cumulative urine samples were collected for PK assessments on days 2 and 3 of cycle 1 (pre-dose—3, 3–7, 7–11 and 11–23 h). Berzosertib concentrations were quantified using a validated liquid chromatography tandem-mass spectrometry method and plasma PK was characterised by non-compartmental analyses using Phoenix WinNonlin 6.4 (Certara USA Inc, Princeton, NJ, USA).
Safety data, baseline patient demographics and disease characteristics were summarised descriptively for the combination safety set—which included all enrolled patients who received at least one dose of study drug. PK data were collected in the PK analysis set, defined as all enrolled patients who received at least one dose of berzosertib and provided at least one measurable post-dose sample. […] Standard non-compartmental methods were used to determine PK parameters.

[2] = tested on: patients with advanced solid tumours
Text: Part A was a 3 + 3 dose-escalation Phase 1 study evaluating the safety, tolerability, pharmacokinetics (PK) and preliminary efficacy of berzosertib in combination with gemcitabine with or without cisplatin (NCT02157792) (Fig. 1). Patients were enrolled in cohorts of three, with subsequent cohort expansion and dose-escalation decisions based on safety review, available PK data and observations of dose-limiting toxicities (DLTs) until the end of treatment cycle 1.
A 7–14-day lead-in period with single ascending doses of intravenous (i.v.) berzosertib was planned to assess the safety of berzosertib monotherapy; the requirement for the lead-in period was removed after review of safety data both during the study and from a concurrent study of berzosertib monotherapy.[17] […] Based on preclinical studies, a starting dose of 18 mg/m^2 and a dosing regimen of i.v. berzosertib on days 2 and 9, ~24 ± 4 h after dosing with gemcitabine ± cisplatin, was selected.[17] […] Patients received i.v. gemcitabine on days 1 and 8, with or without i.v. cisplatin on day 1. […]
Treatment-emergent adverse events (TEAEs) and DLTs were reported using National Cancer Institute (NCI) Common Terminology Criteria for Adverse Events (CTCAE) version 4.0. […] All AEs of any grade were recorded and followed up until resolution. Safety was evaluated throughout treatment and was used to inform dose-escalation decisions. […]

ATR = tested on: ATR; design: method as in PMID 23222511, PMID 25010037; conditions: inhibitor of ATR; cited from earlier work
[3] = human, 18 mg/m2, berzosertib 18 mg/m^2 i.v., lead-in period, berzosertib alone, mean (% CV), n = 3
[4] = human, 36 mg/m2, berzosertib 36 mg/m^2 i.v., lead-in period, berzosertib alone, mean (% CV), n = 3
[5] = human, 60 mg/m2, berzosertib 60 mg/m^2 i.v., lead-in period, berzosertib alone, mean (% CV), n = 4
[6] = human, 72 mg/m2, berzosertib 72 mg/m^2 i.v., lead-in period, berzosertib alone, mean (% CV), n = 7
[7] = human, 90 mg/m2, berzosertib 90 mg/m^2 i.v., lead-in period, berzosertib alone, mean (% CV), n = 6
[8] = human, 140 mg/m2, berzosertib 140 mg/m^2 i.v., lead-in period, berzosertib alone, mean (% CV), n = 5
[9] = human, 210 mg/m2, berzosertib 210 mg/m^2 i.v., lead-in period, berzosertib alone, mean (% CV), n = 2

Which “Dose proportionality of exposure” value ([1]; from 18 to 210 mg/m^2) does the source give for CNCc1ccc(-c2cc(-c3nc(-c4ccc(S(=O)(=O)C(C)C)cc4)cnc3N)on2)cc1 [Berzosertib] here?
Its value is “approximately dose-proportional”.

And the CL renal ([1]; human, intravenous, part A, urine, read-out: Mean renal clearance (converted))?
Its CL renal is 60 mL/min.

What about the AUC(0-inf) [1, 3] of the same molecule?
Its AUC(0-inf) is 351 ng·h/mL.

What about the Cmax [1, 3] of the same molecule?
The Cmax was 72 ng/mL.

And the clearance [1, 3]?
Its clearance is 1640 mL/min.

What about the Vd [1, 3] of the same molecule?
Its Vd is 1600 L.

What about the half-life ([1]; human, 18 mg/m2, berzosertib 18 mg/m^2 i.v., lead-in period, berzosertib alone, mean (% CV), n = 3, read-out: t½ (converted)) of the same molecule?
Its half-life is 840 min.

And the AUC(0-inf) [1, 4]?
The AUC(0-inf) was 913 ng·h/mL.

What about the Cmax [1, 4] of the same molecule?
The Cmax was 176 ng/mL.

What about the clearance [1, 4] of the same molecule?
The clearance was 1500 mL/min.

What about the Vd [1, 4] of the same molecule?
The Vd was 1280 L.

And the half-life ([1]; human, 36 mg/m2, berzosertib 36 mg/m^2 i.v., lead-in period, berzosertib alone, mean (% CV), n = 3, read-out: t½ (converted))?
Its half-life is 852 min.

And the AUC(0-inf) [1, 5]?
The AUC(0-inf) was 1700 ng·h/mL.

And the Cmax [1, 5]?
The Cmax was 345 ng/mL.

What about the clearance [1, 5] of the same molecule?
Its clearance is 1300 mL/min.

What about the Vd [1, 5] of the same molecule?
The Vd was 1280 L.

And the half-life ([1]; human, 60 mg/m2, berzosertib 60 mg/m^2 i.v., lead-in period, berzosertib alone, mean (% CV), n = 4, read-out: t½ (converted))?
The half-life was 900 min.

What about the AUC(0-inf) [1, 6] of the same molecule?
Its AUC(0-inf) is 2280 ng·h/mL.

And the Cmax [1, 6]?
Its Cmax is 536 ng/mL.

What about the clearance [1, 6] of the same molecule?
The clearance was 1040 mL/min.

What about the Vd [1, 6] of the same molecule?
Its Vd is 1040 L.

What about the half-life ([1]; human, 72 mg/m2, berzosertib 72 mg/m^2 i.v., lead-in period, berzosertib alone, mean (% CV), n = 7, read-out: t½ (converted)) of the same molecule?
The half-life was 912 min.

What about the AUC(0-inf) [1, 7] of the same molecule?
Its AUC(0-inf) is 2370 ng·h/mL.

And the Cmax [1, 7]?
The Cmax was 451 ng/mL.

And the clearance [1, 7]?
The clearance was 1240 mL/min.

And the Vd [1, 7]?
Its Vd is 1320 L.

And the half-life ([1]; human, 90 mg/m2, berzosertib 90 mg/m^2 i.v., lead-in period, berzosertib alone, mean (% CV), n = 6, read-out: t½ (converted))?
Its half-life is 1030 min.

What about the AUC(0-inf) [1, 8] of the same molecule?
Its AUC(0-inf) is 4550 ng·h/mL.

And the Cmax [1, 8]?
Its Cmax is 817 ng/mL.

And the clearance [1, 8]?
Its clearance is 1010 mL/min.

What about the Vd [1, 8] of the same molecule?
Its Vd is 1150 L.

What about the half-life ([1]; human, 140 mg/m2, berzosertib 140 mg/m^2 i.v., lead-in period, berzosertib alone, mean (% CV), n = 5, read-out: t½ (converted)) of the same molecule?
Its half-life is 1020 min.

And the AUC(0-inf) [1, 9]?
Its AUC(0-inf) is 6130 ng·h/mL.

What about the Cmax [1, 9] of the same molecule?
The Cmax was 808 ng/mL.

And the clearance [1, 9]?
The clearance was 1270 mL/min.

And the Vd [1, 9]?
Its Vd is 1550 L.

And the half-life ([1]; human, 210 mg/m2, berzosertib 210 mg/m^2 i.v., lead-in period, berzosertib alone, mean (% CV), n = 2, read-out: t½ (converted))?
The half-life was 1010 min.

And the half-life ([1]; human, i.v., 18–210 mg/m^2, read-out: Apparent terminal half-life (converted))?
Its half-life is ~1020 min.

What about the “PK when administered ~24 h after gemcitabine, with or without cisplatin, versus berzosertib alone” value ([1]; in vivo) of the same molecule?
Its value is “not significantly different”.

What about the “Mean percentage excreted in the urine” value ([1]; part A) of the same molecule?
Its value is 5%.

And the Accumulation ([1]; weekly administration)?
The Accumulation was “not observed”.

And the “Trends in laboratory results (serum chemistry, haematology, urinalysis), vital signs or ECG parameters attributable to treatment” value ([2]; in vivo)?
Its value is “no clinically meaningful trends”.

And the “Patients with acute hypersensitivity” value ([2]; on second infusion of berzosertib, no clear relationship to dose)?
The value was < 5%.

And the pIC50 (ATR)?
The pIC50 was 7.72.
